How the values were obtained:
Bcl6 [1] = molecular target: T1, Bcl6 (Homo sapiens (Human), UniProt P41182); assay: Bcl-6 protein degradation experiment in Farage cells; format: cell-based; conditions: 24 hours
Description: 2. Bcl-6 Protein Degradation Experiment in Farage Cells
(§1) Farage cells purchased from ATCC were placed in an RPMI-1640 complete medium (containing 10% fetal bovine serum, 100 U/mL penicillin and 100 μg/mL streptomycin) and cultured at 37° C. and 5% CO2. The cells in the logarithmic growth phase were collected, and the cell suspension was adjusted to an appropriate density with the culture medium and added to a 6-well cell culture plate at a volume of 1 mL/well. The compounds to be tested were prepared to 2-fold the final concentration, 1 mL of the compounds at different concentrations were added to administration wells, a medium containing 0.2% DMSO was added to control wells, and the plate was incubated at 37° C. for 24 hours. The cells were collected into a 1.5 mL centrifuge tube, 25 μL of RIPA lysis buffer (containing 1× protease inhibitor cocktail) was added, and the cells were lysed on ice for 15 minutes and centrifuged at 12000 rpm/min at 4° C. for 10 minutes. The supernatant was collected and the protein content was determined using the BCA method. The protein sample to be tested was diluted to 0.8 mg/mL, Bcl6 was detected using a fully automated protein expression quantitative analyzer (ProteinSimple), and the internal reference protein was R-actin (both antibodies were from CST). The software (Compass for SW) of the fully automated protein expression quantitative analyzer was used to process the raw data and calculate the peak area and the Bcl6 expression rate relative to the control group. DC50 values were calculated using a four-parameter non-linear fitting model in Graphpad 8.3.0 software.

Bcl6 [2] = molecular target: T1, Bcl6; assay: Bcl-6 protein degradation experiment in OCI-LY1 cells; format: cell-based; conditions: 24 hours
Description: 4. Bcl-6 Protein Degradation Experiment in OCI-LY1 Cells
as §1, with “OCI-LY1” for “Farage”, “DSMZ” for “ATCC”, “IMDM” for “RPMI-1640”, “penicillin,” for “penicillin and”, “streptomycin and 50 µM mercaptoethanol)” for “streptomycin)”, “[…]” for “μL”

[3] = molecular target: hERG potassium ion channel (Homo sapiens (Human), UniProt Q12809); assay: Test for hERG potassium ion channel (manual patch-clamp, CHO cells); format: cell-based; conditions: CHO cells stably expressing hERG, whole cell patch-clamp; read-out: IC50 of inhibitory effects on hERG potassium channel current
Source text: 8. Test for hERG Potassium Ion Channel
Experimental platform: electrophysiological manual patch-clamp system
Cell line: Chinese hamster ovary (CHO) cell lines stably expressing hERG potassium ion channel
Experimental method: in CHO (Chinese Hamster Ovary) cells stably expressing hERG potassium channel, the whole cell patch-clamp technique was used to record hERG potassium channel current at room temperature. The glass microelectrode was made of a glass electrode blank (BF150-86-10, Sutter) by a puller. The tip resistance after filling the liquid in the electrode was about 2-5 MΩ. The glass microelectrode can be connected to the patch-clamp amplifier by inserting the glass microelectrode into an amplifier probe. The clamping voltage and data recording were controlled and recorded by the pClamp 10 software through a computer. The sampling frequency was 10 kHz, and the filtering frequency was 2 kHz. After the whole cell records were obtained, the cells were clamped at −80 mV, and the step voltage that induced the hERG potassium current (IhERG) was depolarized from −80 mV to +20 mV for 2 s, then repolarized to −50 mV, and returned to −80 mV after 1 s. This voltage stimulation was given every 10 s, and the administration process was started after the hERG potassium current was confirmed to be stable (at least 1 minute). The compound was administered for at least 1 minute at each test concentration, and at least 2 cells (n≥2) were tested at each concentration.
Data processing: data analysis processing was carried out by using pClamp 10, GraphPad Prism 5 and Excel software. The inhibition degree of hERG potassium current (peak value of hERG tail current induced at −50 mV) at different compound concentrations was calculated by the following formula: […]
where Inhibition % represents the percentage of inhibition of hERG potassium current by the compound, and I and Io represent the amplitude of hERG potassium current after and before the administration, respectively.
Compound IC50 was calculated using GraphPad Prism 5 software by fitting according to the following equation: […]
Among the equation, X represents the Log value of the tested concentration of the test sample, Y represents the inhibition percentage at the corresponding concentration, and Bottom and Top represent the minimum and maximum inhibition percentage, respectively.

[4] = Pharmacokinetic test in mice; format: in vivo, ICR mice; conditions: i.g. 5 mg/kg
Description: 3. Pharmacokinetic Test in Mice
1.1 Experimental animal: male ICR mice, 25-30 g, 6 mice/compound, purchased from Chengdu Ddossy Experimental Animals Co., Ltd.
1.2 Experimental design: on the day of the experiment, the ICR mice were randomly grouped according to their body weights. The animals were fasted but with water available for 12 to 14 h one day before the administration, and were fed 4 h after the administration.

[5] = Pharmacokinetic test in rats; format: in vivo, SD rats; conditions: i.g. 5 mg/kg; for AUC(0-t): male, SD, rat, po, rats plasma
Description: 5. Pharmacokinetic Test in Rats
Experimental objective: in this experiment, a single dose of each test compound was administered to SD rats intravenously and intragastrically, and the concentrations of the test compounds in plasma of rats were measured to evaluate the pharmacokinetic characteristics of the test compounds in rats.
Experimental animal: male SD rats, 200-220 g, 6-8 weeks old, 6 rats/compound, purchased from Chengdu Ddossy Experimental Animals Co., Ltd.
Experimental method: on the day of the experiment, the SD rats were randomly grouped according to their body weights. The animals were fasted but with water available for 12 to 14 h one day before the administration, and were fed 4 h after the administration.
Sampling: Before and after the administration, 0.1 mL of blood was taken from the orbits under isoflurane anesthesia and placed in an EDTAK2 centrifuge tube. Centrifugation was carried out at 5000 rpm at 4° C. for 10 min, and the plasma was collected.
The plasma collection time points for IV&PO groups were 0, 5 min, 15 min, 30 min, 1 h, 2 h, 4 h, 7h, and 24 h.
Before analysis and detection, all samples were stored at −60° C. The samples were analyzed quantitatively by LC-MS/MS. PGP-3212J

Sequence of hERG potassium ion channel (Q12809 whole entry): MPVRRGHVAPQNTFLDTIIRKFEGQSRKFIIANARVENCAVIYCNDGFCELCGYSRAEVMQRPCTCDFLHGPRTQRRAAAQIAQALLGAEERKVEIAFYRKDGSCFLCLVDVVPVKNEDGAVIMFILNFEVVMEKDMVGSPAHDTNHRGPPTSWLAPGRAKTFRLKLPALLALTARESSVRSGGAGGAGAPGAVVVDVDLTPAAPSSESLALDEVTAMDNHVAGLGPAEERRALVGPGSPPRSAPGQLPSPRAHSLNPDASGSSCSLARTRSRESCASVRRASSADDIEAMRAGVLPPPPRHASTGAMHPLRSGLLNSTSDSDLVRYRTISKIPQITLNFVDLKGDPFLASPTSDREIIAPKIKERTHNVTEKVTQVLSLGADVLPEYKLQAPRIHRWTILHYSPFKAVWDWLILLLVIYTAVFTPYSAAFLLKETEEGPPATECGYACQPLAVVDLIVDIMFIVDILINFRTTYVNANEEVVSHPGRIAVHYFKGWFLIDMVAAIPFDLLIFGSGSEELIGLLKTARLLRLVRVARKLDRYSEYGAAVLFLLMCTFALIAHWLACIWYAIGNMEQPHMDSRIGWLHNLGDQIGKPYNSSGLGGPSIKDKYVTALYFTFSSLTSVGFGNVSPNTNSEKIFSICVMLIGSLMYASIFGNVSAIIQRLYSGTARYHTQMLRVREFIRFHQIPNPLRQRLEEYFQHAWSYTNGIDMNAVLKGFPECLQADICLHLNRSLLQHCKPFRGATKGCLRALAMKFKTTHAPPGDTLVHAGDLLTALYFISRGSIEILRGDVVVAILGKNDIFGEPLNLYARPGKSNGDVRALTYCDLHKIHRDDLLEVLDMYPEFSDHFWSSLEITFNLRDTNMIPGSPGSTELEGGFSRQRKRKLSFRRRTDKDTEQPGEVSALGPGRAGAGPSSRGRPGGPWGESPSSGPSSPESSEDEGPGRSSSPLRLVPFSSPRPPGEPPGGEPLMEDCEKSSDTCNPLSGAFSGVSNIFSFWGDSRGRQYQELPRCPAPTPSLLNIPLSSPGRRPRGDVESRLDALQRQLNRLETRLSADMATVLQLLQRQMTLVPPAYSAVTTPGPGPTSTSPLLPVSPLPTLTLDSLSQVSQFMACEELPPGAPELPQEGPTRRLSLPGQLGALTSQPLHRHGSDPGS

SMILES | DC50 (Bcl6 [1]) [nM] | DC50 (Bcl6 [2]) [nM] | DC50 (Bcl6 [2]; listed as compound 8) [nM] | AUC(0-t) ([4]; male, ICR, mouse, po, mice plasma) [ng·h/mL] | F ([4]; mice) [%] | AUC(0-t) [5] [ng·h/mL] | F ([5]; rats) [%] | IC50 [3] [µM]
CNC(=O)COc1cc2cc(Nc3nc(N4CCN(CC5CCN(c6ccc(C7CCC(=O)NC7=O)cc6)CC5)CC4)ncc3Cl)ccc2n(C)c1=O (stereo not shown) [Compound 8] | < 10 | < 100 | < 5 | > 1000 | >50 | > 1000 | >50 | > 40
CNC(=O)COc1cc2cc(Nc3nc(N4CCC(O[C@H]5C[C@H](N6CCn7c(cc8cc(C9CCC(=O)NC9=O)c(F)cc87)C6)C5)CC4)ncc3Cl)ccc2n(C(C)C)c1=O (stereo partly shown) [Trifluoroacetate of compound 78] | < 10 | – | – | – | – | > 1000 | – | > 40

More lines, main results first:

DC50 (Bcl6 [1]) [nM] | DC50 (Bcl6 [2]) [nM] | DC50 (Bcl6 [2]; listed as compound 8) [nM] | AUC(0-t) ([4]; male, ICR, mouse, po, mice plasma) [ng·h/mL] | F ([4]; mice) [%] | AUC(0-t) [5] [ng·h/mL] | F ([5]; rats) [%] | SMILES | IC50 [3] [µM]
< 10 | – | – | – | – | > 1000 | – | [2H]C([2H])([2H])NC(=O)COc1cc2cc(Nc3nc(N4CCC(O[C@H]5C[C@H](N6CCN7c8cc(F)c(C9CCC(=O)NC9=O)cc8CC[C@H]7C6)C5)CC4)ncc3Cl)ccc2n(C([2H])([2H])[2H])c1=O (stereo partly shown) [Trifluoroacetate of compound 71] | > 40
< 10 | – | – | – | – | > 1000 | – | [2H]C([2H])([2H])NC(=O)COc1cc2cc(Nc3nc(N4CCC(O[C@H]5C[C@H](N6CCN7c8cc(F)c(C9CCC(=O)NC9=O)cc8CC[C@H]7C6)C5)CC4)ncc3Cl)ccc2n(C)c1=O (stereo partly shown) [Trifluoroacetate of compound 72] | > 40
< 10 | – | – | – | – | > 1000 | – | [2H]C([2H])([2H])n1c(=O)c(OCC(=O)NC)cc2cc(Nc3nc(N4CCC(O[C@H]5C[C@H](N6CCN7c8cc(F)c(C9CCC(=O)NC9=O)cc8CC[C@H]7C6)C5)CC4)ncc3Cl)ccc21 (stereo partly shown) [Trifluoroacetate of compound 73] | > 40
< 10 | – | – | – | – | > 1000 | – | CCn1c(=O)c(OCC(=O)NC)cc2cc(Nc3nc(N4CCC(O[C@H]5C[C@H](N6CCN7c8cc(F)c(C9CCC(=O)NC9=O)cc8CC[C@@H]7C6)C5)CC4)ncc3Cl)ccc21 (stereo partly shown) [Trifluoroacetate of compound 74] | –

Source: patent US20250333410A1, “COMPOUND FOR INHIBITING OR DEGRADING BCL6 AND USE THEREOF IN PHARMACEUTICS” (XIZANG HAISCO PHARMACEUTICAL CO., LTD., priority 2022, published 2025)
